What all share (format): physicochemical
Data set [1] is described as follows: Solubility in H2O, SGF and FaSSIF. The source says:
(§1) Table 1 Physical/chemical properties of MK-A.

The nature of data set [2]: Solid-state chemical/physical stability of drug forms. The settings on record: chemical and physical.
Excerpt: as §1

A short description of the next data set: Log P (free base).
Excerpt: as §1

The nature of data set [3]: Chemical stability under accelerated conditions (% area). How it is done:
The stability of various formulations of MK-A was evaluated under accelerated conditions (Table 4). Levels of potency reduction right after the solid dispersion preparation were 1.7% and 4.6% for spray drying and hot melt extrusion, respectively. The higher potency reduction in HME was attributed to the higher processing temperature of the HME process (~140 °C) at which thermal degradation of the drug occurred. The potency of the amorphous form of active was further reduced after 2 weeks storage at 40 °C/75% relative humidity (RH) conditions in closed glass vials by up to as much as 8.5% loss of potency in the solid dispersion via HME.

Where [4] appears, read: Fasted Simulated Small Intestine Fluid (FaSSIF).

The structures appear in SMILES notation. In brackets after ≈: the same amount, converted by molar mass. Where a name gives a salt, the structure may show the parent alone. Read-outs that look alike come from different tables or passages of the source.

`CS[C@@]1(C(=O)Nc2ccc3[nH]nc(-c4ccc(OC(C)C)nc4)c3c2)CCN(CC(=O)N2CC=C(c3ccc(-c4ncn(C)n4)cc3)CC2)C1` [MK-A HCl salt]: the solubility in data set [1] (setting [4]) is 21 µg/mL; in data set [1] (simulated gastric fluid (SGF), simulated gastric fluid, Simulated Gastric Fluid (SGF), read-out: Solubility), 525 µg/mL; in data set [1] (water, pH 3.5, water, H2O (pH = 3.5), read-out: Solubility) it was 661 µg/mL. Further, the Stability result in data set [2] is “Chemically stable in the solid-state; Physically stable at various temperatures and humidity conditions but sensitive to mechanical stress”. In the data set “Log P (free base)”, this compound yielded a logP of 4.5.
For the compound `CS[C@@]1(C(=O)Nc2ccc3[nH]nc(-c4ccc(OC(C)C)nc4)c3c2)CCN(CC(=O)N2CC=C(c3ccc(-c4ncn(C)n4)cc3)CC2)C1` [MK-A free base], the solubility was 2 µg/mL (≈ 2.89 µM) in data set [1] (setting [4]); 907 µg/mL (≈ 1310 µM) in data set [1] (Simulated Gastric Fluid (SGF)); 0.3 µg/mL (≈ 0.434 µM) in data set [1] (water, pH 7.3, water, H2O (pH = 7.3), read-out: Solubility). Besides, in data set [2], the Stability result was “Chemically and physically stable”. Besides, in data set [3] (2 weeks, 40 °C/75% RH, closed glass vials), the “2 Weeks at 40 °C/75% RH Closed (% Area)” value is reported as 98.8 % Area. Also, in data set [3] (initial, after preparation), the “Initial (% Area)” value turned out to be 98.8 % Area. Also, in “Log P (free base)”, the “Log P (free base)” value stood at 4.5.
